# Legend:
# Assay in all cases: relative viability (nuclei count vs DMSO), 5 days (fraction); higher = more cells survive
# [1] = test system: NCI-H2347
# Summary of the method: (§1)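 One day after seeding in 1536-well plates, lung cancer cell lines were dosed by pin tool. Dosing was either single-drug or a fixed anchor-drug dose plus five library-drug doses (not always all listed) in √10 steps. After 5 days, nuclei were stained in one fix-and-stain step and counted on 4× images, and relative viability is the nuclei count of treated wells over that of vehicle wells, given as the median of duplicate plates.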
# [2] = test system: NCI-H661
# Summary of the method: as §1
# [3] = test system: NCI-H727
# Summary of the method: as §1
# [4] = test system: NCI-H2126
# Summary of the method: as §1
# [5] = test system: NCI-H322M
# Summary of the method: as §1
# [6] = test system: PC-14
# Summary of the method: as §1
# [7] = test system: EMC-BAC-2
# Summary of the method: as §1
# [8] = test system: EPLC-272H
# Summary of the method: as §1
# [9] = test system: NCI-H2023
# Summary of the method: as §1
# [10] = test system: NCI-H1993
# Summary of the method: as §1
# [11] = test system: SW 1573
# Summary of the method: as §1
# [12] = test system: NCI-H2085
# Summary of the method: as §1
# [13] = test system: NCI-H1563
# Summary of the method: as §1
# [14] = test system: LCLC-97TM1
# Summary of the method: as §1
# [15] = test system: NCI-H647
# Summary of the method: as §1
# [16] = test system: NCI-H1734
# Summary of the method: as §1
# [17] = test system: NCI-H1915
# Summary of the method: as §1
# [18] = test system: NCI-H2009
# Summary of the method: as §1
# [19] = test system: LXF-289
# Summary of the method: as §1
# [20] = test system: HOP-62
# Summary of the method: as §1
# [21] = test system: H3255
# Summary of the method: as §1
# [22] = test system: SK-LU-1
# Summary of the method: as §1
compound,measurement,setting,value
CCN(CC)CCCCNc1ncc2cc(-c3cc(OC)cc(OC)c3)c(NC(=O)NC(C)(C)C)nc2n1 + C[C@@H](Oc1cc(-c2cnn(C3CCNCC3)c2)cnc1N)c1c(Cl)ccc(F)c1Cl [Crizotinib] (partner 1 µM),relative viability,[1]; first compound 0.01 µM,0.766
same,relative viability,[1]; first compound 0.03162 µM,0.62
same,relative viability,[1]; first compound 0.1 µM,0.677
same,relative viability,[1]; first compound 0.3162 µM,0.63
same,relative viability,[1]; first compound 1 µM,0.793
same,relative viability,[2]; first compound 0.03162 µM,1.03
same,relative viability,[2]; first compound 0.1 µM,0.972
same,relative viability,[2]; first compound 0.3162 µM,1.04
same,relative viability,[2]; first compound 1 µM,1.17
same,relative viability,[3]; first compound 0.01 µM,0.829
same,relative viability,[3]; first compound 0.03162 µM,0.923
same,relative viability,[3]; first compound 0.1 µM,1.03
same,relative viability,[3]; first compound 0.3162 µM,1.06
same,relative viability,[3]; first compound 1 µM,0.837
same,relative viability,[4]; first compound 0.01 µM,1.08
same,relative viability,[4]; first compound 0.03162 µM,0.992
same,relative viability,[4]; first compound 0.1 µM,1.06
same,relative viability,[4]; first compound 0.3162 µM,1.08
same,relative viability,[4]; first compound 1 µM,1.04
same,relative viability,[5]; first compound 0.01 µM,0.977
same,relative viability,[5]; first compound 0.03162 µM,0.912
same,relative viability,[5]; first compound 0.1 µM,0.928
same,relative viability,[5]; first compound 0.3162 µM,1.06
same,relative viability,[5]; first compound 1 µM,0.935
same,relative viability,[6]; first compound 0.01 µM,0.916
same,relative viability,[6]; first compound 0.03162 µM,0.875
same,relative viability,[6]; first compound 0.1 µM,1.02
same,relative viability,[6]; first compound 0.3162 µM,1.06
same,relative viability,[6]; first compound 1 µM,0.904
same,relative viability,[7]; first compound 0.01 µM,0.851
same,relative viability,[7]; first compound 0.03162 µM,0.761
same,relative viability,[7]; first compound 0.1 µM,0.85
same,relative viability,[7]; first compound 0.3162 µM,0.839
same,relative viability,[7]; first compound 1 µM,0.735
same,relative viability,[8]; first compound 0.01 µM,1.23
same,relative viability,[8]; first compound 0.1 µM,1.13
same,relative viability,[8]; first compound 0.3162 µM,1.04
same,relative viability,[8]; first compound 1 µM,0.917
same,relative viability,[9]; first compound 0.01 µM,0.646
same,relative viability,[9]; first compound 0.03162 µM,0.627
same,relative viability,[9]; first compound 0.1 µM,0.639
same,relative viability,[9]; first compound 0.3162 µM,0.725
same,relative viability,[9]; first compound 1 µM,0.655
same,relative viability,[10]; first compound 0.01 µM,0.875
same,relative viability,[10]; first compound 0.03162 µM,0.974
same,relative viability,[10]; first compound 0.1 µM,0.875
same,relative viability,[10]; first compound 0.3162 µM,0.985
same,relative viability,[10]; first compound 1 µM,0.783
same,relative viability,[11]; first compound 0.01 µM,0.69
same,relative viability,[11]; first compound 0.03162 µM,0.813
same,relative viability,[11]; first compound 0.1 µM,1.05
same,relative viability,[11]; first compound 0.3162 µM,0.774
same,relative viability,[11]; first compound 1 µM,0.722
same,relative viability,[12]; first compound 0.01 µM,0.983
same,relative viability,[12]; first compound 0.03162 µM,0.917
same,relative viability,[12]; first compound 0.1 µM,0.943
same,relative viability,[12]; first compound 0.3162 µM,0.895
same,relative viability,[12]; first compound 1 µM,0.817
same,relative viability,[13]; first compound 0.01 µM,0.86
same,relative viability,[13]; first compound 0.03162 µM,0.836
same,relative viability,[13]; first compound 0.1 µM,0.816
same,relative viability,[13]; first compound 0.3162 µM,0.833
same,relative viability,[13]; first compound 1 µM,0.623
same,relative viability,[14]; first compound 0.03162 µM,0.45
same,relative viability,[14]; first compound 0.1 µM,0.373
same,relative viability,[14]; first compound 0.3162 µM,0.396
same,relative viability,[14]; first compound 1 µM,0.326
same,relative viability,[15]; first compound 0.01 µM,1.06
same,relative viability,[15]; first compound 0.03162 µM,1.08
same,relative viability,[15]; first compound 0.1 µM,1.53
same,relative viability,[15]; first compound 0.3162 µM,1.3
same,relative viability,[15]; first compound 1 µM,0.774
same,relative viability,[16]; first compound 0.01 µM,0.652
same,relative viability,[16]; first compound 0.03162 µM,0.647
same,relative viability,[16]; first compound 0.1 µM,0.807
same,relative viability,[16]; first compound 0.3162 µM,0.719
same,relative viability,[16]; first compound 1 µM,0.667
same,relative viability,[17]; first compound 0.01 µM,1.1
same,relative viability,[17]; first compound 0.03162 µM,0.926
same,relative viability,[17]; first compound 0.1 µM,0.943
same,relative viability,[17]; first compound 0.3162 µM,1.03
same,relative viability,[17]; first compound 1 µM,0.935
same,relative viability,[18]; first compound 0.01 µM,1.1
same,relative viability,[18]; first compound 0.03162 µM,1.08
same,relative viability,[18]; first compound 0.1 µM,1.13
same,relative viability,[18]; first compound 0.3162 µM,1.11
same,relative viability,[18]; first compound 1 µM,0.953
same,relative viability,[19]; first compound 0.01 µM,0.836
same,relative viability,[19]; first compound 0.03162 µM,0.817
same,relative viability,[19]; first compound 0.1 µM,0.916
same,relative viability,[19]; first compound 0.3162 µM,0.824
same,relative viability,[19]; first compound 1 µM,0.696
same,relative viability,[20]; first compound 0.01 µM,0.967
same,relative viability,[20]; first compound 0.03162 µM,1.14
same,relative viability,[20]; first compound 0.1 µM,0.903
same,relative viability,[20]; first compound 0.3162 µM,1.08
same,relative viability,[20]; first compound 1 µM,1.08
same,relative viability,[21]; first compound 0.01 µM,0.936
same,relative viability,[21]; first compound 0.03162 µM,0.885
same,relative viability,[21]; first compound 0.1 µM,1.14
same,relative viability,[21]; first compound 0.3162 µM,1.01
same,relative viability,[21]; first compound 1 µM,0.843
same,relative viability,[22]; first compound 0.01 µM,0.908
same,relative viability,[22]; first compound 0.03162 µM,1.02
same,relative viability,[22]; first compound 0.1 µM,0.901
same,relative viability,[22]; first compound 0.3162 µM,1
same,relative viability,[22]; first compound 1 µM,0.641

# Reference: the supplement of paper PMC10307832
